Laboratory results as given in US20230265151A1, “GIP/GLP1 CO-AGONIST COMPOUNDS” (priority 2020, published 2023).
Like-named read-outs stand apart in the source and are kept apart here.

Assays:
Format in all cases: cell-based
hGLP-1R = hGLP-1R (Homo sapiens, UniProt P43220); assay: Functional cAMP formation (HTRF) in HEK-293 clonal cells expressing hGLP-1R, 0.1% bovine casein, without or with 1.0% human serum albumin; design: expressed in transfected cells; details: for Emax: percent of maximal response to GLP-1(7-36)NH2; for EC50: cAMP, 37° C.
Chain of hGLP-1R (P43220 24-463): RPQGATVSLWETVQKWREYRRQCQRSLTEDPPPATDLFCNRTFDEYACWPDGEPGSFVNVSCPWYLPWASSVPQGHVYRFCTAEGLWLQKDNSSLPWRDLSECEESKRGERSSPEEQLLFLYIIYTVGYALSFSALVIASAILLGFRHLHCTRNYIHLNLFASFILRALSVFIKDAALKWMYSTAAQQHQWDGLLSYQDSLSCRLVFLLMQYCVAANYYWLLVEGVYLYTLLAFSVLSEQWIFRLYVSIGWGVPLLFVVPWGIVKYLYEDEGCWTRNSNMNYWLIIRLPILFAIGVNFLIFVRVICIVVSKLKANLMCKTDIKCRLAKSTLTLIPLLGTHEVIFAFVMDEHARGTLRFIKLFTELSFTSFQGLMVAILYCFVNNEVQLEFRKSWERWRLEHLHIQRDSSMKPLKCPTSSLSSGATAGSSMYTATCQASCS
Outline: (§1)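 Cells were stimulated with peptide for 30 min at 37° C, then intracellular cAMP was measured by competitive HTRF (665/620 nm ratio) and converted to nM using a cAMP standard curve. Relative EC50 and Emax came from four-parameter logistic fits of percent maximal response against peptide concentration.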

hGIPR = biological target: T1, hGIPR (Homo sapiens, UniProt P48546); assay: Functional cAMP formation (HTRF) in HEK-293 clonal cells expressing hGIPR, 0.1% bovine casein, without or with 1.0% human serum albumin; details: for Emax: percent of maximal response to GIP(1-42)NH2; for EC50: cAMP
T1 construct: expressed in transfected cells
T1 sequence (P48546 22-466): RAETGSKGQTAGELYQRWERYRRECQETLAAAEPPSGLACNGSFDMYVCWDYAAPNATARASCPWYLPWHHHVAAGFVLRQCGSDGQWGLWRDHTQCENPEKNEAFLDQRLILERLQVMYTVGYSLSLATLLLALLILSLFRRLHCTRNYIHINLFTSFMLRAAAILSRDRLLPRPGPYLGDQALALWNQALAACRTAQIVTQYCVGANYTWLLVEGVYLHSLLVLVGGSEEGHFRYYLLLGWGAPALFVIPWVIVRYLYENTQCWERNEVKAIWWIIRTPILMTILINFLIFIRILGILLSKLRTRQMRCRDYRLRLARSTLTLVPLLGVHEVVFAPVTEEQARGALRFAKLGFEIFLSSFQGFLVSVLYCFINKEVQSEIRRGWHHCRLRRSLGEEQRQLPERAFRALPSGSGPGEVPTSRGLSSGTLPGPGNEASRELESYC
Outline: as §1

hGCGR = biological target: T2, hGCGR (Homo sapiens, UniProt P47871); assay: Functional cAMP formation (HTRF) in HEK-293 clonal cells expressing hGCGR, 0.1% bovine casein, without or with 1.0% human serum albumin; details: cAMP, 37° C.
T2 construct: expressed in transfected cells
T2 sequence (P47871 26-477): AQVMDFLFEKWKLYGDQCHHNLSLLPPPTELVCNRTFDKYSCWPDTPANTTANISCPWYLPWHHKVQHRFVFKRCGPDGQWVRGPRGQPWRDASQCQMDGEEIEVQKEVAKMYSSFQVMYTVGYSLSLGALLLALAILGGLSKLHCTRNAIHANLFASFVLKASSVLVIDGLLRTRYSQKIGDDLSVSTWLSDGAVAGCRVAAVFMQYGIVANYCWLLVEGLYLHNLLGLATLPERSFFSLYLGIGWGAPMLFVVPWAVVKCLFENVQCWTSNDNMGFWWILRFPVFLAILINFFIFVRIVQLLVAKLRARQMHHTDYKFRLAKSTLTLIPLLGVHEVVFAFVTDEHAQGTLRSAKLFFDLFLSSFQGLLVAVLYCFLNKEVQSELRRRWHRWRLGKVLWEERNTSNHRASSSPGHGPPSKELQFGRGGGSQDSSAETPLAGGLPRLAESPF
Outline: as §1

[1] = HEK293, read-out: hGLP-1R Emax, % ± SEM, cAMP, 37° C., 0.1% bovine casein and 1.0% human serum albumin
[2] = hGLP-1R EC50, nM (SEM, n), 0.1% bovine casein (no human serum albumin), geometric mean
[3] = hGLP-1R EC50, nM (SEM, n), 0.1% bovine casein and 1.0% human serum albumin, geometric mean (SEM, n)
[4] = HEK293, read-out: hGIPR Emax, % ± SEM, cAMP, 37° C., 0.1% bovine casein and 1.0% human serum albumin
[5] = HEK293, read-out: hGIPR Emax, % ± SEM, cAMP, 37° C., 0.1% bovine casein, arithmetic mean
[6] = hGIPR EC50, nM (SEM, n), 37° C., 0.1% bovine casein (no human serum albumin), geometric mean
[7] = hGIPR EC50, nM (SEM, n), 37° C., 0.1% bovine casein and 1.0% human serum albumin, geometric mean (SEM, n)
[8] = hGCGR EC50, nM (SEM, n), 0.1% bovine casein (no human serum albumin), geometric mean
[9] = hGCGR EC50, nM (SEM, n), 0.1% bovine casein and 1.0% human serum albumin, geometric mean (SEM, n)
[10] = HEK293, read-out: hGLP-1R Emax, % ± SEM, cAMP, 37° C., 0.1% bovine casein, arithmetic mean

Row | Structure (SMILES) | Emax (hGLP-1R; [1]) [%] | EC50 (hGLP-1R; [2]) [nM] | EC50 (hGLP-1R; [3]) [nM] | Emax (hGIPR; [4]) [%] | Emax (hGIPR; [5]) [%] | EC50 (hGIPR; [6]) [nM] | EC50 (hGIPR; [7]) [nM] | EC50 (hGCGR; [8]) [nM] | EC50 (hGCGR; [9]) [nM] | Emax (hGLP-1R; [10]) [%] | EC50 (hGLP-1R; 0.1% bovine casein (no human serum albumin), geometric mean, read-out: hGLP-1R EC50, nM (SEM, n)) [nM] | EC50 (hGLP-1R; 0.1% bovine casein and 1.0% human serum albumin, geometric mean (SEM, n), read-out: hGLP-1R EC50, nM (SEM, n)) [nM] | Emax (hGIPR; HEK293, cAMP, 37° C., 0.1% bovine casein and 1.0% human serum albumin, read-out: hGIPR Emax, % ± SEM) [%] | Emax (hGIPR; HEK293, cAMP, 37° C., 0.1% bovine casein, arithmetic mean, read-out: hGIPR Emax, % ± SEM) [%] | EC50 (hGIPR; 37° C., 0.1% bovine casein (no human serum albumin), geometric mean, read-out: hGIPR EC50, nM (SEM, n)) [nM] | EC50 (hGCGR; 0.1% bovine casein (no human serum albumin), geometric mean, read-out: hGCGR EC50, nM (SEM, n)) [nM] | EC50 (hGCGR; 0.1% bovine casein and 1.0% human serum albumin, geometric mean (SEM, n), read-out: hGCGR EC50, nM (SEM, n)) [nM]
1 | CC[C@H](C)[C@H](NC(=O)[C@H](CC(C)C)NC(=O)[C@](C)(Cc1ccc(O)cc1)NC(=O)[C@@H](CCC(=O)O)NC(=O)[C@@H](NC(=O)[C@H](Cc1ccccc1)NC(=O)[C@H](CCCCNC(=O)COCCOCCNC(=O)COCCOCCNC(=O)CCCCCCCCCOc1ccc(C(=O)O)cc1)NC(=O)C(C)(C)NC(=O)[C@H](CCC(N)=O)NC(=O)[C@H](C)NC(=O)[C@H](CCCCNC(=O)COCCOCCNC(=O)COCCOCCNC(=O)CCCCCCCCCOc1ccc(C(=O)O)cc1)NC(=O)[C@H](CCCN)NC(=O)[C@H](CC(=O)O)NC(=O)[C@H](CC(C)C)NC(=O)[C@](C)(CC(C)C)NC(=O)[C@@H](NC(=O)C(C)(C)NC(=O)[C@@H](NC(=O)[C@H](CC(=O)O)NC(=O)[C@H](CO)NC(=O)[C@@H](NC(=O)[C@](C)(Cc1ccccc1F)NC(=O)[C@@H](NC(=O)CNC(=O)[C@H](CCC(=O)O)NC(=O)C(C)(C)NC(=O)[C@@H](N)Cc1ccc(O)cc1)[C@@H](C)O)[C@@H](C)O)C(C)C)[C@@H](C)CC)[C@@H](C)CC)C(=O)N[C@@H](CCC(=O)O)C(=O)NCC(=O)NCC(=O)N1CCC[C@H]1C(=O)N[C@@H](CO)C(=O)N[C@@H](CO)C(=O)NCC(=O)N[C@@H](C)C(=O)N1CCC[C@H]1C(=O)N1CCC[C@H]1C(=O)N1CCC[C@H]1C(=O)N[C@@H](CO)C(N)=O [Example 394] | 96.8 | 0.223 | 5.83 | 84.6 | 97.7 | 0.0179 | 1.38 | > 9950 | > 9950 |  |  |  |  |  |  |  | 
2 | CC[C@H](C)[C@H](NC(=O)[C@H](CC(C)C)NC(=O)[C@](C)(Cc1ccc(O)cc1)NC(=O)[C@@H](CCC(=O)O)NC(=O)[C@@H](NC(=O)[C@H](Cc1ccccc1)NC(=O)[C@H](CCC(=O)O)NC(=O)C(C)(C)NC(=O)[C@H](CCC(N)=O)NC(=O)[C@H](C)NC(=O)[C@H](CCCCNC(=O)COCCOCCNC(=O)COCCOCCNC(=O)CCCCCCCCCOc1ccc(C(=O)O)cc1)NC(=O)[C@H](CCCN)NC(=O)[C@H](CC(=O)O)NC(=O)[C@H](CC(C)C)NC(=O)[C@](C)(CC(C)C)NC(=O)[C@@H](NC(=O)C(C)(C)NC(=O)[C@H](Cc1ccncc1)NC(=O)[C@H](CC(=O)O)NC(=O)[C@H](CO)NC(=O)[C@@H](NC(=O)[C@](C)(Cc1ccccc1F)NC(=O)[C@@H](NC(=O)CNC(=O)[C@H](CCC(=O)O)NC(=O)C(C)(C)NC(=O)[C@@H](N)Cc1ccc(O)cc1)[C@@H](C)O)[C@@H](C)O)[C@@H](C)CC)[C@@H](C)CC)C(=O)N[C@@H](CCCCNC(=O)COCCOCCNC(=O)COCCOCCNC(=O)CCCCCCCCCOc1ccc(C(=O)O)cc1)C(=O)NCC(=O)NCC(=O)N1CCC[C@H]1C(=O)N[C@@H](CO)C(=O)N[C@@H](CO)C(=O)NCC(=O)N[C@@H](C)C(=O)N1CCC[C@H]1C(=O)N1CCC[C@H]1C(=O)N1CCC[C@H]1C(=O)N[C@@H](CO)C(N)=O [Example 395] | 96.1 | 0.377 | 6.26 | 57.8 | 93.1 | 0.0127 |  | > 9950 | > 9950 | 90.8 |  |  |  |  |  |  | 
3 | CC[C@H](C)[C@H](NC(=O)[C@H](CC(C)C)NC(=O)[C@](C)(Cc1ccc(O)cc1)NC(=O)[C@@H](CCC(=O)O)NC(=O)[C@@H](NC(=O)[C@H](Cc1ccccc1)NC(=O)[C@H](CCC(=O)O)NC(=O)C(C)(C)NC(=O)[C@H](CCC(N)=O)NC(=O)[C@H](C)NC(=O)[C@H](CCCCNC(=O)COCCOCCNC(=O)COCCOCCNC(=O)CCCCCCCCCOc1ccc(C(=O)O)cc1)NC(=O)[C@H](CCCN)NC(=O)[C@H](CC(=O)O)NC(=O)[C@H](CC(C)C)NC(=O)[C@](C)(CC(C)C)NC(=O)[C@@H](NC(=O)C(C)(C)NC(=O)[C@H](Cc1ccc(O)cc1)NC(=O)[C@H](CC(=O)O)NC(=O)[C@H](CO)NC(=O)[C@@H](NC(=O)[C@](C)(Cc1ccccc1F)NC(=O)[C@@H](NC(=O)CNC(=O)[C@H](CCC(=O)O)NC(=O)C(C)(C)NC(=O)[C@@H](N)Cc1ccc(O)cc1)[C@@H](C)O)[C@@H](C)O)[C@@H](C)CC)[C@@H](C)CC)C(=O)N[C@@H](CCCCNC(=O)COCCOCCNC(=O)COCCOCCNC(=O)CCCCCCCCCOc1ccc(C(=O)O)cc1)C(=O)NCC(=O)NCC(=O)N1CCC[C@H]1C(=O)N[C@@H](CO)C(=O)N[C@@H](CO)C(=O)NCC(=O)N[C@@H](C)C(=O)N1CCC[C@H]1C(=O)N1CCC[C@H]1C(=O)N1CCC[C@H]1C(=O)N[C@@H](CO)C(N)=O [Example 396] | 94.4 | 0.291 |  | 67.1 | 96.2 | 0.0113 | 0.595 | > 9950 | > 9950 |  |  |  |  |  |  |  | 
4 | CC[C@H](C)[C@H](NC(=O)[C@H](CC(C)C)NC(=O)[C@](C)(Cc1ccc(O)cc1)NC(=O)[C@@H](CCC(=O)O)NC(=O)[C@@H](NC(=O)[C@H](Cc1ccccc1)NC(=O)[C@H](CCC(=O)O)NC(=O)C(C)(C)NC(=O)[C@H](CCC(N)=O)NC(=O)[C@H](C)NC(=O)[C@H](CCCCNC(=O)COCCOCCNC(=O)COCCOCCNC(=O)CCCCCCCCCOc1ccc(C(=O)O)cc1)NC(=O)[C@H](CCCN)NC(=O)[C@H](CC(=O)O)NC(=O)[C@H](CC(C)C)NC(=O)[C@](C)(CC(C)C)NC(=O)[C@@H](NC(=O)C(C)(C)NC(=O)[C@@H](NC(=O)[C@H](CC(=O)O)NC(=O)[C@H](CO)NC(=O)[C@@H](NC(=O)[C@](C)(Cc1ccccc1F)NC(=O)[C@@H](NC(=O)CNC(=O)[C@H](CCC(=O)O)NC(=O)C(C)(C)NC(=O)[C@@H](N)Cc1ccc(O)cc1)[C@@H](C)O)[C@@H](C)O)C(C)C)[C@@H](C)CC)[C@@H](C)CC)C(=O)N[C@@H](CCCCNC(=O)COCCOCCNC(=O)COCCOCCNC(=O)CCCCCCCCCOc1ccc(C(=O)O)cc1)C(=O)NCC(=O)NCC(=O)N1CCC[C@H]1C(=O)N[C@@H](CO)C(=O)N[C@@H](CO)C(=O)NCC(=O)N[C@@H](C)C(=O)N1CCC[C@H]1C(=O)N1CCC[C@H]1C(=O)N1CCC[C@H]1C(=O)N[C@@H](CO)C(N)=O [Example 397] |  | 0.166 |  | 84.5 | 94.6 | 0.0293 |  | > 9950 | > 9950 | 95.8 |  |  |  |  |  |  | 
5 | CC[C@H](C)[C@H](NC(=O)[C@H](CC(C)C)NC(=O)[C@](C)(Cc1ccc(O)cc1)NC(=O)[C@@H](CCC(=O)O)NC(=O)[C@@H](NC(=O)[C@H](Cc1ccccc1)NC(=O)[C@H](CCCCNC(=O)COCCOCCNC(=O)CC[C@H](NC(=O)CCCCCCCCCCCCC(=O)O)C(=O)O)NC(=O)C(C)(C)NC(=O)[C@H](CCC(N)=O)NC(=O)[C@H](C)NC(=O)[C@H](CCCCNC(=O)COCCOCCNC(=O)CC[C@H](NC(=O)CCCCCCCCCCCCC(=O)O)C(=O)O)NC(=O)[C@H](CCCN)NC(=O)[C@H](CC(=O)O)NC(=O)[C@H](CC(C)C)NC(=O)[C@](C)(CC(C)C)NC(=O)[C@@H](NC(=O)C(C)(C)NC(=O)[C@@H](NC(=O)[C@H](CC(=O)O)NC(=O)[C@H](CO)NC(=O)[C@@H](NC(=O)[C@](C)(Cc1ccccc1F)NC(=O)[C@@H](NC(=O)CNC(=O)[C@H](CCC(=O)O)NC(=O)C(C)(C)NC(=O)[C@@H](N)Cc1ccc(O)cc1)[C@@H](C)O)[C@@H](C)O)C(C)C)[C@@H](C)CC)[C@@H](C)CC)C(=O)N[C@@H](CCC(=O)O)C(=O)NCC(=O)NCC(=O)N1CCC[C@H]1C(=O)N[C@@H](CO)C(=O)N[C@@H](CO)C(=O)NCC(=O)N[C@@H](C)C(=O)N1CCC[C@H]1C(=O)N1CCC[C@H]1C(=O)N1CCC[C@H]1C(=O)N[C@@H](CO)C(N)=O [Example 398] |  |  |  |  |  |  |  |  |  |  | 0.215 | 41.3 | 91.9 | 97.4 | 0.0166 | > 9950 | > 9950
